# Measured values taken from US20250041176A1, “An antimicrobial composition” (Conopco, Inc., d/b/a UNILEVER, priority 2021, published 2025).
# System: C. acnes (ATCC 6919)
# Assay: Growth of C. acnes, MIC plate method
# Format: cell-based, Cutibacterium acnes
# Settings: actives at the stated % in 20 ml agar; 10 μl inoculum spotted; 37° C. 4-5 days anaerobically
# Method: The actives whether used singly or in combination as shown in Table-1 were tested for growth of C. acnes using the invitro protocol as given below:
# Protocol used for Measuring Growth (MIC Plate Method)
# Working Cultures of Test Organisms
# For C. acnes (ATCC 6919): Approximately 4-5 days prior to testing, a sterile plate of […] (RCM Agar) was inoculated with the challenge bacterial test organism and incubated at 37° C.±1° C. for 4-5 days anaerobically.
# Test Organism Suspensions (To Be Prepared Just Before Use)
# A suspension of the challenge microorganism was prepared in sterile 0.85% saline and a cell density were adjusted at 620 nm to achieve a challenge suspension concentration of approximately 1.0×10^8 colony forming units per ml for bacteria
# Preparation of Sample Concentrations
# • a) Aliquot of samples were taken to achieve required test concentration in 20 ml of agar system. • b) Test samples were initially dissolved in 1 ml of sample diluent (sterile d/water or solvent) to get test solutions • c) The test solutions were added to 20 ml sterile molten agar maintained at a temperature of 45-50° C., mixed thoroughly and poured into petri plates. The agar was allowed to solidify at room temperature. • d) On solidification, 10μl inoculum of prepared test culture was spotted onto respective agar surfaces in duplicates • e) The inoculated plates were allowed to stand at room temperature until the inoculum spots had been absorbed into the agar. The plates were incubated at 37° C. ±1° C. for 4-5 days anaerobically. After completion of incubation, plates were checked for growth and no growth to determine the MIC value.
row,SMILES,Observation (growth of C. acnes)
1,"CCC(C)c1ccc(O)cc1 (stereo not drawn) [C, 4 sec butyl phenol]",Growth
2,"Oc1ccc(C2CCCC2)cc1 [E, 4 cyclo pentyl phenol]",Growth
3,"CCCCCCc1ccc(O)cc1O [Example A, 4 hexyl resorcinol]",Growth
